Patent US20150284385A1, “CERTAIN DIPEPTIDYL PEPTIDASE INHIBITORS” (SHANGHAI FOCHON PHARMACEUTICAL CO LTD, priority 2012, published 2015)
Read-outs that look alike come from different tables or passages of the source.

Columns and labels:
[1] = target: Recombinant human DPP-IV (Homo sapiens, UniProt P27487); assay: DPP-IV assay in vitro (H-Ala-Pro-AFC fluorescence); format: biochemical; conditions: 30 min pre-incubation, H-Ala-Pro-AFC 50 μM
Procedure: DPP-IV Assay Solutions of test compounds in varying concentrations (10^−5 mol/L, 10^−6 mol/L, 10^−7 mol/L, 10^−8 mol/L, 10^−9 mol/L, 10^−10 mol/L, 10^−11 mol/L, and 10^−12 mol/L) were prepared in dimethyl sulfoxide (DMSO) and then diluted into assay buffer comprising: 10 mM Tris-HCl pH 8.0, 0.2 M NaCl, and 0.1% BSA. Recombinant human DPP-IV (7.8 ng/ml final concentration) was added to the dilutions and pre-incubated for 30 mins at room temperature before the reaction was initiated with H-Ala-Pro-AFC (50 μM final concentration). The total volume of the reaction mixture was 100 μl.
Inhibition constants (IC50) were calculated by GraphPad Prism.

[2] = target: T1, DPP-4 (Mus musculus, UniProt P28843); assay: Plasma DPP-4 activity in mice after oral dosing; format: in vivo, ICR mice; conditions: oral 1 mg/kg, read-out: DPP-4 Relative activity %
T1 construct: Blood sample was processed to obtain plasma; from tissue; host or cells: plasma of male ICR mice
Procedure: Some of the exemplary compounds were tested in mice to assess inhibition of DPP-4 activity via plasma DPP-4 activity. Male ICR mice (25-30 g) were used for this study. All the mice were fasted at least 3 hours before study. Mice (n=6/group) received vehicle or at least one of the exemplary compounds by oral gavage. The dosing solutions were 0.15 mg/ml for the 3 mg/kg. Dosing volume was 20 mL/kg of body weight for all doses. The vehicle was distilled water. […] Blood sample was processed to obtain plasma (2000 g, 5 min, 4° C.) within 15 min after sampling.
Plasma was collected and tested by fluoremetry. Before the testing, 80 mM MgCl2 buffer was added into the 5 uL serum samples and pre-incubation for 5 minutes at room temperature, then […] of 0.1 mM substrate Gly-Pro-AMC and 20 μL of buffer were added into them. The fluorescence of the mixture was measured every 3 minutes after mixing (excitation at 380 nm; emission at 460 nm). After 6 times of measurements, a time-fluorescence cure was obtained. The slope of the curve would be the activity of DPP-4 in serum. The DPP-4 activity before administration was 100%. The relative activity of DPP-4 in serum was calculated using the formula below:
Relative DPP-4activity=DPP-4activity after dosing/DPP-4activity before dosing×100%.

[3] = Table 3, mice plasma, 1 h after dosing
[4] = Table 3, mice plasma, 2 h after dosing
[5] = Table 3, mice plasma, 4 h after dosing
[6] = Table 3, mice plasma, 6 h after dosing
[7] = Table 3, mice plasma, 9 h after dosing
[8] = Table 3, mice plasma, 12 h after dosing
[9] = Table 3, mice plasma, 24 h after dosing
[10] = Table 4 Test 3, mice plasma, 1 h after dosing
[11] = Table 4 Test 3, mice plasma, 2 h after dosing
[12] = Table 4 Test 3, mice plasma, 4 h after dosing
[13] = Table 4 Test 3, mice plasma, 6 h after dosing
[14] = Table 4 Test 3, mice plasma, 9 h after dosing
[15] = Table 4 Test 3, mice plasma, 12 h after dosing
[16] = Table 4 Test 3, mice plasma, 24 h after dosing

Chain of Recombinant human DPP-IV (P27487 whole entry): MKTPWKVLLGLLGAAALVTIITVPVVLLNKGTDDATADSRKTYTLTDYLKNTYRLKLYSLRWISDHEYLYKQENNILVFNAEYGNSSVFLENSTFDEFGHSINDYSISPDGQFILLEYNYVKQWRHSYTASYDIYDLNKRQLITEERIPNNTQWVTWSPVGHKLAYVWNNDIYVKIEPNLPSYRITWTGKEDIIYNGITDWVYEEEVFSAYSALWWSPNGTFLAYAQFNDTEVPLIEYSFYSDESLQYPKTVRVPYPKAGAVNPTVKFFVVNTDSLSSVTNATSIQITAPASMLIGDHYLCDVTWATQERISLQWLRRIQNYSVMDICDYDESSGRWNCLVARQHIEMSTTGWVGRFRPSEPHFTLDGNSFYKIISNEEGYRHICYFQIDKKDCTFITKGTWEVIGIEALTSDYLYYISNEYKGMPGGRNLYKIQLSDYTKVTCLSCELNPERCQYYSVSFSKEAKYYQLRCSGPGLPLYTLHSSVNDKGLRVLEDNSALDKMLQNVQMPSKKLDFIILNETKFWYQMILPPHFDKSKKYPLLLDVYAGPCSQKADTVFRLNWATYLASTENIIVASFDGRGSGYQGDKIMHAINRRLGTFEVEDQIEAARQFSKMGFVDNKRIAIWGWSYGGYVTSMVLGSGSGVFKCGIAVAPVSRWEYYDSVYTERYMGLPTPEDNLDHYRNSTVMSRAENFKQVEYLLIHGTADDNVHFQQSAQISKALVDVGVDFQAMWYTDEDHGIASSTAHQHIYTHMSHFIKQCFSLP
T1 sequence (P28843 37-760 limits assumed): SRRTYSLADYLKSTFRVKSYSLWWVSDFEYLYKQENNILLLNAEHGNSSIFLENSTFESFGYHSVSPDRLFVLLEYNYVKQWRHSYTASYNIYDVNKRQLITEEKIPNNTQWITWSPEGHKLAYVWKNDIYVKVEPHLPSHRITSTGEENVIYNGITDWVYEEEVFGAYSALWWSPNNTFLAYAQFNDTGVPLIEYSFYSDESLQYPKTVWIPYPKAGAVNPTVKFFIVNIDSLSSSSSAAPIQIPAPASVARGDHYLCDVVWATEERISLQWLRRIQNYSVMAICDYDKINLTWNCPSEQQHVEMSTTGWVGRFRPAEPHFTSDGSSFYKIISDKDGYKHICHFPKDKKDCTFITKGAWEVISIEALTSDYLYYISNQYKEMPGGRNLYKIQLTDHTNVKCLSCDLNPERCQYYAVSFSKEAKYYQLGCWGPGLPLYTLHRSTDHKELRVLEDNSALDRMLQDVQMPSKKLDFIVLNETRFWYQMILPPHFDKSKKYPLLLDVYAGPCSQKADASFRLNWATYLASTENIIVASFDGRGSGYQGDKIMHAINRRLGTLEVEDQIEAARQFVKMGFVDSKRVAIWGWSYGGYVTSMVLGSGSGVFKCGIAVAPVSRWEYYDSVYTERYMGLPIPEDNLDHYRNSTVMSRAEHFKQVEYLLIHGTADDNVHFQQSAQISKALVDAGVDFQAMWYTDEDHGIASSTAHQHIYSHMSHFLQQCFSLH

| IC50 [1] [nM] | activity at 1 mg/kg [2, 3] [%] | activity at 1 mg/kg [2, 4] [%] | activity at 1 mg/kg [2, 5] [%] | activity at 1 mg/kg [2, 6] [%] | activity at 1 mg/kg [2, 7] [%] | activity at 1 mg/kg [2, 8] [%] | activity at 1 mg/kg [2, 9] [%] | activity at 1 mg/kg [2, 10] [%] | activity at 1 mg/kg [2, 11] [%] | activity at 1 mg/kg [2, 12] [%] | activity at 1 mg/kg [2, 13] [%] | activity at 1 mg/kg [2, 14] [%] | activity at 1 mg/kg [2, 15] [%] | activity at 1 mg/kg [2, 16] [%] | Compound |
| --- | --- | --- | --- | --- | --- | --- | --- | --- | --- | --- | --- | --- | --- | --- | --- |
| 0.6 |  |  |  |  |  |  |  |  |  |  |  |  |  |  | N[C@H]1Cc2c(nc3cc(-c4nnn[nH]4)ccn23)C[C@@H]1c1cc(F)c(F)cc1F [Example 10, (7R,8S)-3-(1H-Tetrazol-5-yl)-7-(2,4,5-trifluorophenyl)-6,7,8,9-tetrahydrobenzo[4,5]imidazo[1,2-a]pyridin-8-amine] |
|  | 7.4 ± 1.2 | 7 ± 1.1 | 6.4 ± 1.9 | 10.5 ± 1.7 | 10.1 ± 1.2 | 15 ± 1.6 | 38.3 ± 5.6 | 7.4 ± 1.2 | 7 ± 1.1 | 6.4 ± 1.9 | 10.5 ± 1.7 | 10.1 ± 1.2 | 15 ± 1.6 | 38.3 ± 5.6 | N[C@H]1Cc2c(nc3cc(-c4n[nH]c(=O)o4)ccn23)C[C@@H]1c1cc(F)c(F)cc1F [Example 12, 5-((7R,8S)-8-Amino-7-(2,4,5-trifluorophenyl)-6,7,8,9-tetrahydrobenzo[4,5]imidazo[1,2-a]pyridin-3-yl)-1,3,4-oxadiazol-2(3H)-one] |
| 1.7 |  |  |  |  |  |  |  |  |  |  |  |  |  |  | Cc1n[nH]c(-c2ccn3c4c(nc3c2)C[C@H](c2cc(F)c(F)cc2F)[C@@H](N)C4)n1 [Example 8, (7R,8S)-3-(3-methyl-1H-1,2,4-Triazol-5-yl)-7-(2,4,5-trifluorophenyl)-6,7,8,9-tetrahydrobenzo[4,5]imidazo[1,2-a]pyridine-8-amine] |

Further lines, the molecule ahead of its results:

| Compound | IC50 [1] [nM] | activity at 1 mg/kg [2, 3] [%] | activity at 1 mg/kg [2, 4] [%] | activity at 1 mg/kg [2, 5] [%] | activity at 1 mg/kg [2, 6] [%] | activity at 1 mg/kg [2, 7] [%] | activity at 1 mg/kg [2, 8] [%] | activity at 1 mg/kg [2, 9] [%] | activity at 1 mg/kg [2, 10] [%] | activity at 1 mg/kg [2, 11] [%] | activity at 1 mg/kg [2, 12] [%] | activity at 1 mg/kg [2, 13] [%] | activity at 1 mg/kg [2, 14] [%] | activity at 1 mg/kg [2, 15] [%] | activity at 1 mg/kg [2, 16] [%] |
| --- | --- | --- | --- | --- | --- | --- | --- | --- | --- | --- | --- | --- | --- | --- | --- |
| Cn1ncnc1-c1ccn2c3c(nc2c1)C[C@H](c1cc(F)c(F)cc1F)[C@@H](N)C3 [Example 9, (7R,8S)-3-(1-Methyl-1H-1,2,4-triazol-5-yl)-7-(2,4,5-trifluorophenyl)-6,7,8,9-tetrahydrobenzo[4,5]imidazo[1,2-a]pyridine-8-amine] | 2 |  |  |  |  |  |  |  |  |  |  |  |  |  |  |
| N[C@H]1Cc2c(nc3cc(-c4nc[nH]n4)ccn23)C[C@@H]1c1cc(F)c(F)cc1F [Example 7, (7R,8S)-3-(1H-1,2,4-Triazol-3-yl)-7-(2,4,5-trifluorophenyl)-6,7,8,9-tetrahydrobenzo[4,5]imidazo[1,2-a]pyridine-8-amine] | 0.9 |  |  |  |  |  |  |  |  |  |  |  |  |  |  |
| Cn1nc(-c2ccn3c4c(nc3c2)C[C@H](c2cc(F)c(F)cc2F)[C@@H](N)C4)oc1=O [Example 13, 5-((7R,8S)-8-Amino-7-(2,4,5-trifluorophenyl)-6,7,8,9-tetrahydrobenzo[4,5]imidazo[1,2-a]pyridin-3-yl)-3-methyl-1,3,4-oxadiazol-2(3H)-one] |  | 8.5 ± 2.2 | 5 ± 1.7 | 7 ± 2.7 | 4.4 ± 2.3 | 6.1 ± 1.7 | 8.5 ± 1.3 | 20.2 ± 0.6 | 8.5 ± 2.2 | 5 ± 1.7 | 7 ± 2.7 | 4.4 ± 2.3 | 6.1 ± 1.7 | 8.5 ± 1.3 | 20.2 ± 0.6 |
